Here are results for one compound from patent US10292991B2, “Small molecule therapeutic compounds that reduce the incidence of intracerebral hemorrhage and brain microhemorrhages” (St. Michaels Hospital, priority 2016, dated 2019).

Counter-ions that a name gives are not always drawn.

One series has as its system CCM3 (Ccm3) mRNA. In words: qRT-PCR of CCM3 mRNA in atorvastatin-treated zebrafish larvae. As to conditions: 1 μmol/L atorvastatin alone. The class given is in vivo, zebrafish (Danio rerio). As for the experimental part: qRT-PCR was used to assess relative expression of selected genes (an average of two biological trial and three technical replicates and each trial is a pool of 60 larvae/treatment), using β-actin as the housekeeping gene control. 3 dpf, Tg(Flk:GFP; Gata:dsRed) zebrafish larvae were used for RNA extraction and cDNA synthesis. Atorvastatin and drug treatment were performed as previously mentioned in drug screening. Total RNA was extracted from these larvae (a pool of 50-60 larvae/treatment) using the RNeasy extraction kit (Qiagen, Mississauga, ON, CAN) and treated with DNase. The concentration of total RNA was determined spectrophotometrically at 260/280 nm using a NanoDrop™ spectrophotometer. First-strand cDNA was synthesized from 1 μg of total RNA using random hexamer primers.
In each case, forward primer is shown on the top and reverse primer on the bottom.
PCR was carried out in a 20 μl total volume and included 1×PCR buffer, 1.25 mM MgCl2, 0.25 mM dNTP, 1 U Taq polymerase, 0.5 μmol/L forward, and reverse primers and 1 μl cDNA.

The next series deals with mice treated with LPS. The series is described as follows: Atorvastatin plus LPS in mice: mortality and large hemorrhages. Format: in vivo. To be noted: for mortality: n=5. The source says: While the present invention has been described with reference to the specific embodiments thereof it should be understood by those skilled in the art that various changes may be made and equivalents may be substituted without departing from the true spirit and scope of the invention. In addition, many modifications may be made to adopt a particular situation, material, composition of matter, process, process step or steps, to the objective spirit and scope of the present invention. All such modifications are intended to be within the scope of the claims appended hereto.

As for `CC(C)c1c(C(=O)Nc2ccccc2)c(-c2ccccc2)c(-c2ccc(F)cc2)n1CC[C@@H](O)C[C@@H](O)CC(=O)O` [Atorvastatin, atorvastatin calcium salt], in the series on CCM3 (Ccm3) mRNA, the “CCM3 transcription level (qRT-PCR) after inducing hemorrhage” value is listed as “decrease”. The mortality in the series with mice treated with LPS (atorvastatin 50 mg/kg in addition to LPS 5 mg/kg, 24 hours after treatments) was 100%; in the series with mice treated with LPS (statin alone, 24 hours) it was “did not cause any mortality”. For the same compound, the “Number of large hemorrhages caused by LPS” value in the series on mice treated with LPS (mouse, in vivo) was “significantly increased”.

The term mortality denotes the percentage killed.
